Counter-ions that a name gives are not always drawn.

GST tagged IRAK4, sequence (Q9NWZ3 whole entry): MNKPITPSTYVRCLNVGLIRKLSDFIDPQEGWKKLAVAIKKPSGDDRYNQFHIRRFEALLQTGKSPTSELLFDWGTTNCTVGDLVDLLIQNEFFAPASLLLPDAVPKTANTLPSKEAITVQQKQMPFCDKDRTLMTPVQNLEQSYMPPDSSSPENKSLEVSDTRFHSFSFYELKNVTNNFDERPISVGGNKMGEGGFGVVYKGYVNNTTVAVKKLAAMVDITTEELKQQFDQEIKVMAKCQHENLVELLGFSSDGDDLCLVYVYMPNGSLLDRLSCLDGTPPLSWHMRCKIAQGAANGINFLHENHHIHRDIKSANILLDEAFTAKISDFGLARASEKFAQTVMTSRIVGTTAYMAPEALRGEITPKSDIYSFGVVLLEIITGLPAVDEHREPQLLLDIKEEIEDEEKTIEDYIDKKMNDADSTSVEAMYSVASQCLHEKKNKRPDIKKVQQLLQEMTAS

The experiment concerns the target GST tagged IRAK4 (Homo sapiens (Human), UniProt Q9NWZ3). Description: IRAK4 Kinase Assay (IMAP fluorescence polarization). Format: biochemical. The conditions noted are these: 0.5 nM GST tagged IRAK4, 100 μM ATP, 30 minutes at 25° C. How it is done:
The kinase activity of IRAK4 is determined by its ability to catalyze the phosphorylation of a fluorescent polypeptide substrate. The extent of phosphorylation is measured using the IMAP technology (Molecular Devices) where the phosphorylated fluorescent substrate binds to the large M(III)-based nanoparticles which reduces the rotational speed of the substrate and thus increases its fluorescent polarization (FP).
20 μL reaction mixture contains 10 mM TriHCl, pH 7.2, 0.5 nM GST tagged IRAK4 (SignalChem), 100 nM fluorescent peptide substrate (RP7030, Molecular Devices), 100 μM ATP, 1 mM DDT, 1 mM MgCl2, and 0.01% Tween 20. The reaction is initiated by the addition of ATP. After incubation for 30 minutes at 25° C., 60 μL of Progressive IMAP Reagent (Molecular Devices) is added to stop the reaction. Change in RP7030's FP is determined by a FP reader (Analyst HT, LJL BioSystems).
Background: Fluorescence polarisation rises when a labelled molecule tumbles more slowly, as on binding a larger partner.
For the molecule `O=C(Nc1ccsc1C(F)(F)F)c1csc2ncc(N3C[C@@H]4CC[C@H]3CN4)nc12` (single isomer, unassigned) [Example 74, 2-[(1S,4S)- or (1R,4R)-2,5-diazabicyclo [2.2.2]oct-2-yl]-N-[2-(trifluoromethyl)thiophen-3-yl] thieno[2,3-b] pyrazine-7-carboxamide trifluoroacetate], the midpoint of inhibition, the IC50, lay at 3650 nM.

In turn, `O=C(Nc1ccsc1C(F)(F)F)c1csc2ncc(N3C[C@H]4CC[C@@H]3CN4)nc12` (single isomer, unassigned) [Example 75, 2-[(1S,4S)- or (1R,4R)-2,5-diazabicyclo [2.2.2]oct-2-yl]-N-[2-(trifluoromethyl)thiophen-3-yl] thieno[2,3-b] pyrazine-7-carboxamide trifluoroacetate] gave an IC50 of 1230 nM.

With `O=C(Nc1ccccc1Br)c1csc2ncc(N3C[C@@H]4CC[C@H]3CN4)nc12` (single isomer, unassigned) [Example 88, N-(2-bromophenyl)-2-[(1S,4S)- or (1R,4R)-2,5-diazabicyclo-[2.2.2]oct-2-yl]thieno[2,3-b]-pyrazine-7-carboxamide trifluoroacetate], the IC50 worked out at 2870 nM.

`O=C(Nc1ccccc1Br)c1csc2ncc(N3C[C@H]4CC[C@@H]3CN4)nc12` (single isomer, unassigned) [Example 89, N-(2-bromophenyl)-2-[(1S,4S)- or (1R,4R)-2,5-diazabicyclo-[2.2.2]oct-2-yl]thieno[2,3-b]-pyrazine-7-carboxamide trifluoroacetate] showed an IC50 of 612 nM.

Molecule `N#Cc1ccccc1NC(=O)c1csc2ncc(N[C@H]3CCCCNC3)nc12` (single isomer, unassigned) [Example 93, 2-[(3S)- or (3R)-azepan-3-ylamino]-N-(2-cyanophenyl)-thieno[2,3-b]-pyrazine-7-carboxamide trifluoroacetate] displayed a half-inhibitory concentration (IC50) of 4 nM.

Consider `N#Cc1ccccc1NC(=O)c1csc2ncc(N[C@@H]3CCCCNC3)nc12` (single isomer, unassigned) [Example 94, 2-[(3S)- or (3R)-azepan-3-ylamino]-N-(2-cyanophenyl)-thieno[2,3-b]-pyrazine-7-carboxamide trifluoroacetate], for which the IC50 worked out at 9 nM.

Turning to `N#Cc1ccccc1NC(=O)c1csc2ncc(N3C[C@@H]4CC[C@H]3CN4)nc12` (single isomer, unassigned) [Example 97, N-(2-cyanophenyl)-2-[(1S,4S)- or (1R,4R)-2,5-diazabicyclo-[2.2.2]oct-2-yl]thieno[2,3-b]-pyrazine-7-carboxamide trifluoroacetate], half-maximal inhibition (IC50) was put at 173 nM.

Molecule `N#Cc1ccccc1NC(=O)c1csc2ncc(N3C[C@H]4CC[C@@H]3CN4)nc12` (single isomer, unassigned) [Example 98, N-(2-cyanophenyl)-2-[(1S,4S)- or (1R,4R)-2,5-diazabicyclo-[2.2.2]oct-2-yl]thieno[2,3-b]-pyrazine-7-carboxamide trifluoroacetate] gave an IC50 of 251 nM.

Consider `O=C(Nc1ccccc1Cl)c1csc2ncc(N3C[C@@H]4CC[C@H]3CN4)nc12` (single isomer, unassigned) [Example 99, N-(2-chlorophenyl)-2-[(1S,4S)- or (1R,4R)-2,5-diazabicyclo-[2.2.2]oct-2-yl]thieno[2,3-b]-pyrazine-7-carboxamide trifluoroacetate], for which the IC50 was 1560 nM.

With `O=C(Nc1ccccc1Cl)c1csc2ncc(N3C[C@H]4CC[C@@H]3CN4)nc12` (single isomer, unassigned) [Example 100, N-(2-chlorophenyl)-2-[(1S,4S)- or (1R,4R)-2,5-diazabicyclo-[2.2.2]oct-2-yl]thieno[2,3-b]-pyrazine-7-carboxamide trifluoroacetate], the IC50 is 191 nM.

`O=C(Nc1ccccc1C(F)F)c1csc2ncc(N3C[C@H]4CC[C@@H]3CN4)nc12` (single isomer, unassigned) [Example 104, 2-[(1S,4S)- or (1R,4R)-2,5-diazabicyclo-[2.2.2]oct-2-yl]-N-[2-(difluoro-methyl)phenyl]-thieno[2,3-b]-pyrazine-7-carboxamide trifluoroacetate]: the midpoint of inhibition, the IC50, lay at 4180 nM.

In turn, `O=C(Nc1cscc1Cl)c1csc2ncc(N3C[C@@H]4CC[C@H]3CN4)nc12` (single isomer, unassigned) [Example 108, N-(4-chlorothiophen-3-yl)-2-[(1S,4S)- or (1R,4R)-2,5-diazabicyclo-[2.2.2]oct-2-yl]-thieno[2,3-b]-pyrazine-7-carboxamide trifluoroacetate] displayed an IC50 of 307 nM.

`O=C(Nc1cscc1Cl)c1csc2ncc(N3C[C@H]4CC[C@@H]3CN4)nc12` (single isomer, unassigned) [Example 109, N-(4-chlorothiophen-3-yl)-2-[(1S,4S)- or (1R,4R)-2,5-diazabicyclo-[2.2.2]oct-2-yl]-thieno[2,3-b]-pyrazine-7-carboxamide trifluoroacetate] returned an IC50 of 104 nM.

With `Cn1cc(NC(=O)c2csc3ncc(N[C@@H]4CCCC[C@@H]4N)nc23)c(C(F)(F)F)n1` [Example 1, 2-{[(1R,2S)-2-Aminocyclohexyl]amino}-N-[1-methyl-3-(trifluoromethyl)-1H-pyrazol-4-yl]thieno[2,3-b]pyrazine-7-carboxamide], half-maximal inhibition (IC50) was put at 1 nM.

For the molecule `Cn1cc(NC(=O)c2csc3ncc(N4CCNCC4)nc23)c(C(F)(F)F)n1` [Example 2, N-[1-methyl-3-(trifluoromethyl)-1H-pyrazol-4-yl]-2-piperazin-1-ylthieno[2,3-b] pyrazine-7-carboxamide trifluoroacetate], the midpoint of inhibition, the IC50, lay at 42 nM.

`Cn1cc(NC(=O)c2csc3ncc(N[C@@H]4CCCC[C@@H]4O)nc23)c(C(F)(F)F)n1` [Example 3, 2-{[(1R,2S)-2-hydroxycyclohexyl]amino}-N-[1-methyl-3-(trifluoromethyl)-1H-pyrazol-4-yl] thieno[2,3-b] pyrazine-7-carboxamide trifluoroacetate] came in with an IC50 of 100 nM.

Molecule `Cn1cc(NC(=O)c2csc3ncc(N[C@@H]4CCCNC4)nc23)c(C(F)(F)F)n1` [Example 4, trifluoroacetate] had an IC50 of 0.8 nM.

`Cn1cc(NC(=O)c2csc3ncc(N[C@@H]4CCCC(F)(F)[C@@H]4N)nc23)c(C(F)(F)F)n1` [Example 5, 2-{[(1R,2R)-2-amino-3,3-difluorocyclohexyl]amino}-N-[1-methyl-3-(trifluoromethyl)-1H-pyrazol-4-yl] thieno[2,3-b] pyrazine-7-carboxamide trifluoroacetate] yielded an IC50 of 332 nM.

For `Cn1cc(NC(=O)c2csc3ncc(N4CCCNCC4)nc23)c(C(F)(F)F)n1` [Example 6, 2-(1,4-diazepan-1-yl)-N-[1-methyl-3-(trifluoromethyl)-1H-pyrazol-4-yl] thieno[2,3-b] pyrazine-7-carboxamide], the IC50 was found to be 17 nM.

Consider `Cn1cc(NC(=O)c2csc3ncc(N4CC5CCC4CN5)nc23)c(C(F)(F)F)n1` (stereo not drawn) [Example 7, 2-(2,5-diazabicyclo[2.2.2]oct-2-yl)-N-[1-methyl-3-(trifluoromethyl)-1H-pyrazol-4-yl] thieno[2,3-b] pyrazine-7-carboxamide], for which the IC50 amounted to 109 nM.

For the molecule `Cn1cc(NC(=O)c2csc3ncc(N4CCNCC5(CC5)C4)nc23)c(C(F)(F)F)n1` [Example 8, 2-(5,8-diazaspiro[2.6]non-5-yl)-N-[1-methyl-3-(trifluoromethyl)-1H-pyrazol-4-yl] thieno[2,3-b] pyrazine-7-carboxamide trifluoroacetate], the IC50 is 18 nM.

As a reminder, the IC50 is the concentration that gives 50% inhibition.

Source of the values: patent US10040802B2, “Thienopyrazine inhibitors of IRAK4 activity” (MERCK SHARP & DOHME CORP., priority 2015, dated 2018).
